Reference: the supplement of paper PMC10307832

Legend:
Assay in all cases: relative viability (nuclei count vs DMSO), 5 days (fraction); higher = more cells survive
RERF-LC-KJ = tested on: RERF-LC-KJ
Outline: (§1)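 A single step with final 0.05% Triton X-100, 1% formaldehyde and 1 ug/ml Hoechst fixed the cells and stained nuclei 5 days after treatment. Lung cancer cell lines in 1536-well plates had been treated by pin tool the day after seeding with one drug alone or a fixed anchor-drug dose plus five library-drug doses (not always all listed) in √10 steps, and nuclei were counted on 4× images. Relative viability is the ratio of nuclei in treated wells to nuclei in vehicle wells, taken as the median of duplicate plates.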

NCI-H1355 = tested on: NCI-H1355
Outline: as §1

NCI-H1563 = tested on: NCI-H1563
Outline: as §1

NCI-H2228 = tested on: NCI-H2228
Outline: as §1

LK-2 = tested on: LK-2
Outline: as §1

LCLC-97TM1 = tested on: LCLC-97TM1
Outline: as §1

NCI-H1734 = tested on: NCI-H1734
Outline: as §1

NCI-H661 = tested on: NCI-H661
Outline: as §1

PC-14 = tested on: PC-14
Outline: as §1

NCI-H520 = tested on: NCI-H520
Outline: as §1

NCI-H1975 = tested on: NCI-H1975
Outline: as §1

HCC-827 = tested on: HCC-827
Outline: as §1

EKVX = tested on: EKVX
Outline: as §1

PC-3 [JPC-3] = tested on: PC-3 [JPC-3]
Outline: as §1

NCI-H322M = tested on: NCI-H322M
Outline: as §1

HCC-15 = tested on: HCC-15
Outline: as §1

CAL-12T = tested on: CAL-12T
Outline: as §1

NCI-H1650 = tested on: NCI-H1650
Outline: as §1

NCI-H1755 = tested on: NCI-H1755
Outline: as §1

NCI-H2405 = tested on: NCI-H2405
Outline: as §1

H3255 = tested on: H3255
Outline: as §1

`CCN(CC)CCCCNc1ncc2cc(-c3cc(OC)cc(OC)c3)c(NC(=O)NC(C)(C)C)nc2n1` + CS(=O)(=O)N1CCN(Cc2cc3nc(-c4cccc5[nH]ncc45)nc(N4CCOCC4)c3s2)CC1 [Pictilisib] (partner 1 µM) showed a relative viability (RERF-LC-KJ; first compound 0.01 µM) of 0.695, a relative viability (RERF-LC-KJ; first compound 0.03162 µM) of 0.639 and a relative viability (RERF-LC-KJ; first compound 0.1 µM) of 0.528. It also gave a relative viability (RERF-LC-KJ; first compound 0.3162 µM) of 0.671, a relative viability (RERF-LC-KJ; first compound 1 µM) of 0.526 and a relative viability (NCI-H1355; first compound 0.01 µM) of 0.327. For the same compound, the relative viability (NCI-H1355; first compound 0.03162 µM) was 0.375, the relative viability (NCI-H1355; first compound 0.1 µM) was 0.478 and the relative viability (NCI-H1355; first compound 0.3162 µM) was 0.569. The relative viability (NCI-H1355; first compound 1 µM) was 0.461, the relative viability (NCI-H1563; first compound 0.01 µM) was 0.63 and the relative viability (NCI-H1563; first compound 0.03162 µM) was 0.636. It also gave a relative viability (NCI-H1563; first compound 0.1 µM) of 0.634, a relative viability (NCI-H1563; first compound 0.3162 µM) of 0.529 and a relative viability (NCI-H1563; first compound 1 µM) of 0.425. It also gave a relative viability (NCI-H2228; first compound 0.01 µM) of 0.441, a relative viability (NCI-H2228; first compound 0.03162 µM) of 0.311 and a relative viability (NCI-H2228; first compound 0.1 µM) of 0.353. The relative viability (NCI-H2228; first compound 0.3162 µM) was 0.539, the relative viability (NCI-H2228; first compound 1 µM) was 0.246 and the relative viability (LK-2; first compound 0.01 µM) was 0.624. The relative viability (LK-2; first compound 0.03162 µM) was 0.438, the relative viability (LK-2; first compound 0.1 µM) was 0.425 and the relative viability (LK-2; first compound 0.3162 µM) was 0.388. The relative viability (LK-2; first compound 1 µM) was 0.263, the relative viability (LCLC-97TM1; first compound 0.03162 µM) was 0.18 and the relative viability (LCLC-97TM1; first compound 0.1 µM) was 0.162. For the same compound, the relative viability (LCLC-97TM1; first compound 0.3162 µM) was 0.16, the relative viability (LCLC-97TM1; first compound 1 µM) was 0.178 and the relative viability (NCI-H1734; first compound 0.01 µM) was 0.452. The relative viability (NCI-H1734; first compound 0.03162 µM) was 0.424, the relative viability (NCI-H1734; first compound 0.1 µM) was 0.54 and the relative viability (NCI-H1734; first compound 0.3162 µM) was 0.427. It also gave a relative viability (NCI-H1734; first compound 1 µM) of 0.395, a relative viability (NCI-H661; first compound 0.01 µM) of 0.403 and a relative viability (NCI-H661; first compound 0.03162 µM) of 0.313. The relative viability (NCI-H661; first compound 0.1 µM) was 0.434, the relative viability (NCI-H661; first compound 0.3162 µM) was 0.445 and the relative viability (NCI-H661; first compound 1 µM) was 0.344. For the same compound, the relative viability (PC-14; first compound 0.01 µM) was 0.702, the relative viability (PC-14; first compound 0.03162 µM) was 0.624 and the relative viability (PC-14; first compound 0.1 µM) was 0.658. For the same compound, the relative viability (PC-14; first compound 0.3162 µM) was 0.807, the relative viability (PC-14; first compound 1 µM) was 0.509 and the relative viability (NCI-H520; first compound 0.01 µM) was 0.292. It also gave a relative viability (NCI-H520; first compound 0.03162 µM) of 0.301, a relative viability (NCI-H520; first compound 0.1 µM) of 0.264 and a relative viability (NCI-H520; first compound 0.3162 µM) of 0.225. The relative viability (NCI-H520; first compound 1 µM) was 0.146, the relative viability (NCI-H1975; first compound 0.01 µM) was 0.28 and the relative viability (NCI-H1975; first compound 0.03162 µM) was 0.277. For the same compound, the relative viability (NCI-H1975; first compound 0.1 µM) was 0.311, the relative viability (NCI-H1975; first compound 0.3162 µM) was 0.322 and the relative viability (NCI-H1975; first compound 1 µM) was 0.255. For the same compound, the relative viability (HCC-827; first compound 0.01 µM) was 1.03, the relative viability (HCC-827; first compound 0.03162 µM) was 0.992 and the relative viability (HCC-827; first compound 0.1 µM) was 0.886. The relative viability (HCC-827; first compound 0.3162 µM) was 1.06, the relative viability (HCC-827; first compound 1 µM) was 1.02 and the relative viability (EKVX; first compound 0.01 µM) was 0.437. For the same compound, the relative viability (EKVX; first compound 0.03162 µM) was 0.455, the relative viability (EKVX; first compound 0.1 µM) was 0.42 and the relative viability (EKVX; first compound 0.3162 µM) was 0.407. For the same compound, the relative viability (EKVX; first compound 1 µM) was 0.465, the relative viability (PC-3 [JPC-3]; first compound 0.01 µM) was 0.739 and the relative viability (PC-3 [JPC-3]; first compound 0.03162 µM) was 0.843. The relative viability (PC-3 [JPC-3]; first compound 0.1 µM) was 0.786, the relative viability (PC-3 [JPC-3]; first compound 0.3162 µM) was 0.815 and the relative viability (PC-3 [JPC-3]; first compound 1 µM) was 0.602. For the same compound, the relative viability (NCI-H322M; first compound 0.01 µM) was 0.573, the relative viability (NCI-H322M; first compound 0.03162 µM) was 0.47 and the relative viability (NCI-H322M; first compound 0.1 µM) was 0.499. For the same compound, the relative viability (NCI-H322M; first compound 0.3162 µM) was 0.566, the relative viability (NCI-H322M; first compound 1 µM) was 0.456 and the relative viability (HCC-15; first compound 0.01 µM) was 0.813. The relative viability (HCC-15; first compound 0.03162 µM) was 0.813, the relative viability (HCC-15; first compound 0.1 µM) was 0.766 and the relative viability (HCC-15; first compound 0.3162 µM) was 0.929. The relative viability (HCC-15; first compound 1 µM) was 0.715, the relative viability (CAL-12T; first compound 0.03162 µM) was 0.322 and the relative viability (CAL-12T; first compound 0.1 µM) was 0.386. For the same compound, the relative viability (CAL-12T; first compound 0.3162 µM) was 0.6, the relative viability (CAL-12T; first compound 1 µM) was 0.397 and the relative viability (NCI-H1650; first compound 0.01 µM) was 0.542. For the same compound, the relative viability (NCI-H1650; first compound 0.03162 µM) was 0.464, the relative viability (NCI-H1650; first compound 0.1 µM) was 0.423 and the relative viability (NCI-H1650; first compound 0.3162 µM) was 0.477. It also gave a relative viability (NCI-H1650; first compound 1 µM) of 0.22, a relative viability (NCI-H1755; first compound 0.01 µM) of 0.403 and a relative viability (NCI-H1755; first compound 0.03162 µM) of 0.386. For the same compound, the relative viability (NCI-H1755; first compound 0.1 µM) was 0.479, the relative viability (NCI-H1755; first compound 0.3162 µM) was 0.381 and the relative viability (NCI-H1755; first compound 1 µM) was 0.258. The relative viability (NCI-H2405; first compound 0.01 µM) was 0.361, the relative viability (NCI-H2405; first compound 0.03162 µM) was 0.412 and the relative viability (NCI-H2405; first compound 0.1 µM) was 0.586. It also gave a relative viability (NCI-H2405; first compound 0.3162 µM) of 0.531, a relative viability (NCI-H2405; first compound 1 µM) of 0.404 and a relative viability (H3255; first compound 0.01 µM) of 0.421. The relative viability (H3255; first compound 0.03162 µM) was 0.485, the relative viability (H3255; first compound 0.1 µM) was 0.569 and the relative viability (H3255; first compound 0.3162 µM) was 0.514. For the same compound, the relative viability (H3255; first compound 1 µM) was 0.501.
